The subject of one data set is HBV. Briefly: HBV-DNA antiviral assay using HepG2.117 cells (intracellular HBV DNA by qPCR). It counts as cell-based, genotype D HBV. The note with it: 3 days incubation, HBV DNA inhibition. The procedure:
(§1) The following assay procedure describes the HBV antiviral assay, using HepG2.117 cells, which carry a stably integrated genotype D HBV genome under the control of a Tet-off promoter, and intracellular HBV DNA quantification as endpoint. Cell viability is assessed in parallel by measuring the intracellular ATP content using CellTiter-Glo 2.0 (Promega).
On day 0, HepG2.117 cells (which are maintained in routine cell culture with doxycycline present in the medium at a final concentration of 1 μg/mL) are seeded in 96-well plates (white with clear bottom) at a density of 2.0×10^4 cells/well (0.1 mL/well) in medium without doxycycline to induce pgRNA transcription and subsequent formation of HBV particles. The cells are incubated at 37° C. and 5% CO2.
(§2) On day 1, medium is removed from each well, the test articles are diluted in culture medium without doxcycyline and 100 μL was added to cell culture wells (9 concentrations, 4-fold dilution). For each plate, 6 untreated (merely DMSO) wells are included. The final concentration of DMSO in the culture medium is 2%. Each plate is prepared in duplicate (one for HBV DNA extraction, one for CellTiter-Glo 2.0 measurement). The cells are incubated at 37° C. and 5% CO2 for 3 days.
(§3) On day 4, cell viability is assessed using CellTiter-Glo 2.0 and cell lysates are prepared for HBV DNA extraction and subsequent quantification by qPCR.
HBV DNA Quantification by qPCR
Medium is removed from each well and 100 μL of 0.33% NP-40 in H2O was added to each well. Plates are sealed, incubated at 4° C. for 5 mins, vortexed extensively and centrifuged briefly. Next, 35 μL of lysate is added to 65 μL QuickExtract DNA Extraction Solution (Epicentre) in a PCR plate for each well. PCR plate is incubated at 65° C. for 6 mins, 98° C. for 2 mins and finally cooled to 4° C. HBV DNA is then quantified by qPCR with HBV-specific primers and probes as specified in Table 2 using the Bio-Rad SSOAdvanced Universal Probes Supermix on a CFX96 machine (Bio-Rad). The PCR cycle program consisted of 95° C. for 3 mins, followed by 40 cycles at 95° C. for 10 sec and 60° C. for 30 sec.
A DNA standard is prepared by dilution of an IDT gBlock corresponding to the amplicon with concentrations ranging from 10^2 to 10^8 copies/input (i.e., per 4 μL) and used to generate a standard curve by plotting Cq values vs. HBV DNA standard concentration. The quantity of HBV DNA in each sample is determined by interpolating from the standard curve.
(§4) Cell viability is calculated as follows: % Cell viability=(luminescence value of test sample)/(average luminescence value of 2% DMSO control)×100%. HBV DNA inhibition was calculated as follows: 100−(HBV DNA copy number of test sample)/(average HBV DNA copy number of 2% DMSO control)×100%. No normalization to entecavir is required due to the excellent dynamic window of this assay. The CC50, EC50 and EC90 values were determined by dose-response curves fitted using non-linear regression.
Background: Real-time PCR tracks product formation cycle by cycle.

The next data set concerns HepG2.117 cells. The data set can be described thus: Cell viability by CellTiter-Glo 2.0 (intracellular ATP content). It counts as cell-based. As to conditions: 3 days incubation. The procedure: as §1, §2, §3
(§5) Using the other plates, the cell viability is quantified by CellTiter-Glo 2.0 according to the manufacturer's manual. In brief, 100 μL of reagent solution is added to the culture plates and shaken for 2′. The plates are incubated at rt for 10 min and luminescence signal is subsequently measured on a VarioSkan Lux (ThermoFisher) plate reader.
as §4
On the technique in general: In ATP-based viability assays light output follows the ATP content of the culture.

Assay in data set [1]: as above
It counts as cell-based. As to conditions: human, HepG2.117 cells, 3 days incubation. As to the method: as §1, §2, §3, §5, §4

Where a name gives a salt, the structure may show the parent alone. Where only a bound is given, the exact number is not on record here.

Consider 11 compounds from patent US20240150351A1, “BICYCLIC COMPOUNDS” (Aligos Therapeutics, Inc., priority 2022, published 2024).

What is called EC50 is the concentration needed to bring the measured effect to its halfway point. A high value points to a need for much substance. By CC50 is commonly meant the concentration at which the toxic effect on the cells reaches its halfway point. Read a high CC50 as lower toxicity to the cells.

`C=C[C@H](C)Nc1nc2c(c(=O)n1-c1ccc(C(=O)N(C)C(=O)O[C@@H](C)OC(=O)[C@@H](N)C(C)C)cc1)C[C@@H](C)N(C(=O)c1ccc(Br)c(C(F)(F)F)c1)C2` (relative stereo) [Compound 6, (*S)-1-(((4-((R)-7-(4-bromo-3-(trifluoromethyl)benzoyl)-2-(((S)-but-3-en-2-yl)amino)-6-methyl-4-oxo-5,6,7,8-tetrahydropyrido[3,4-d]pyrimidin-3(4H)-yl)benzoyl)(methyl)carbamoyl)oxy)ethyl L-valinate hydrochloride] returned a 50% effective concentration (EC50) in the data set with HBV of no more than 0.05 µM. The compound also returned a 50% cytotoxic concentration (CC50) in the data set on HepG2.117 cells greater than 50 µM.
`C=C[C@H](C)Nc1nc2c(c(=O)n1-c1ccc(C(=O)N(C)C(=O)O[C@H](C)OC(=O)[C@@H](N)C(C)C)cc1)C[C@@H](C)N(C(=O)c1ccc(Br)c(C(F)(F)F)c1)C2` (relative stereo) [Compound 7, (*R)-1-(((4-((R)-7-(4-bromo-3-(trifluoromethyl)benzoyl)-2-(((S)-but-3-en-2-yl)amino)-6-methyl-4-oxo-5,6,7,8-tetrahydropyrido[3,4-d]pyrimidin-3(4H)-yl)benzoyl)(methyl)carbamoyl)oxy)ethyl L-valinate hydrochloride]: the 50% effective concentration (EC50) with HBV was no more than 0.05 µM. The half-maximal cytotoxic concentration (CC50) in the data set on HepG2.117 cells was greater than 50 µM.
Take `C=C[C@H](C)Nc1nc2c(c(=O)n1-c1ccc(C(=O)N(C)C(=O)O[C@H](OC(=O)[C@@H](N)C(C)C)C(C)C)cc1)C[C@@H](C)N(C(=O)c1ccc(Br)c(C(F)(F)F)c1)C2` (relative stereo) [Compound 10, (*S)-1-(((4-((R)-7-(4-bromo-3-(trifluoromethyl)benzoyl)-2-(((S)-but-3-en-2-yl)amino)-6-methyl-4-oxo-5,6,7,8-tetrahydropyrido[3,4-d]pyrimidin-3(4H)-yl)benzoyl)(methyl)carbamoyl)oxy)-2-methylpropyl L-valinate hydrochloride]: the EC50 in the data set on HBV was no more than 0.05 µM. The same compound yielded a CC50 with HepG2.117 cells greater than 50 µM.
Compound `C=C[C@H](C)Nc1nc2c(c(=O)n1-c1ccc(C(=O)N(C)C(=O)O[C@@H](OC(=O)[C@@H](N)C(C)C)C(C)C)cc1)C[C@@H](C)N(C(=O)c1ccc(Br)c(C(F)(F)F)c1)C2` (relative stereo) [Compound 11, (*R)-1-(((4-((R)-7-(4-bromo-3-(trifluoromethyl)benzoyl)-2-(((S)-but-3-en-2-yl)amino)-6-methyl-4-oxo-5,6,7,8-tetrahydropyrido[3,4-d]pyrimidin-3(4H)-yl)benzoyl)(methyl)carbamoyl)oxy)-2-methylpropyl L-valinate hydrochloride] yielded a 50% effective concentration (EC50) in the data set with HBV of no more than 0.05 µM. The CC50 in the data set with HepG2.117 cells was greater than 50 µM.
In the data set on HBV (Hepatitis B virus, 72 h), `C=C[C@H](C)Nc1nc2c(c(=O)n1-c1ccc(C(=O)NC)cc1)C[C@@H](C)N(C(=O)c1ccc(Br)c(C(F)(F)F)c1)C2` [Compound 1, 4-((R)-7-(4-bromo-3-(trifluoromethyl)benzoyl)-2-(((S)-but-3-en-2-yl)amino)-6-methyl-4-oxo-5,6,7,8-tetrahydropyrido[3,4-d]pyrimidin-3(4H)-yl)-N-methylbenzamide] gave an EC50 of no more than 0.05 µM. Besides, in data set [1], half-maximal cytotoxicity (CC50 at 3 days) was put at 46.8 µM.
On the same counts, the results for `C=C[C@H](C)Nc1nc2c(c(=O)n1-c1ccc(C(=O)N(C)C(=O)OCOP(=O)(O)O)cc1)C[C@@H](C)N(C(=O)c1ccc(Br)c(C(F)(F)F)c1)C2` [Compound 2, (phosphonooxy)methyl (4-((R)-7-(4-bromo-3-(trifluoromethyl)benzoyl)-2-(((S)-but-3-en-2-yl)amino)-6-methyl-4-oxo-5,6,7,8-tetrahydropyrido[3,4-d]pyrimidin-3(4H)-yl)benzoyl)(methyl)carbamate] are no more than 0.05 µM and greater than 50 µM.
On the same counts, the results for `C=C[C@H](C)Nc1nc2c(c(=O)n1-c1ccc(C(=O)N(C)C(=O)OCOC(=O)/C=C/C(=O)O)cc1)C[C@@H](C)N(C(=O)c1ccc(Br)c(C(F)(F)F)c1)C2` [Compound 3, (E)-4-((((4-((R)-7-(4-bromo-3-(trifluoromethyl)benzoyl)-2-(((S)-but-3-en-2-yl)amino)-6-methyl-4-oxo-5,6,7,8-tetrahydropyrido[3,4-d]pyrimidin-3(41H)-yl)benzoyl)(methyl)carbamoyl)oxy)methoxy)-4-oxobut-2-enoic acid] are no more than 0.05 µM and greater than 50 µM.
Taken in the same sequence, the figures for `C=C[C@H](C)Nc1nc2c(c(=O)n1-c1ccc(C(=O)N(C)C(=O)OCOC(=O)[C@@H](N)C(C)C)cc1)C[C@@H](C)N(C(=O)c1ccc(Br)c(C(F)(F)F)c1)C2` [Compound 4, (((4-((R)-7-(4-bromo-3-(trifluoromethyl)benzoyl)-2-(((S)-but-3-en-2-yl)amino)-6-methyl-4-oxo-5,6,7,8-tetrahydropyrido[3,4-d]pyrimidin-3(4H)-yl)benzoyl)(methyl)carbamoyl)oxy)methyl L-valinate hydrochloride] were no more than 0.05 µM and greater than 50 µM.
For the compound `C=C[C@H](C)Nc1nc2c(c(=O)n1-c1ccc(C(=O)N(C)C(=O)OCOC(=O)[C@H](N)C(C)C)cc1)C[C@@H](C)N(C(=O)c1ccc(Br)c(C(F)(F)F)c1)C2` [Compound 5, (((4-((R)-7-(4-bromo-3-(trifluoromethyl)benzoyl)-2-(((S)-but-3-en-2-yl)amino)-6-methyl-4-oxo-5,6,7,8-tetrahydropyrido[3,4-d]pyrimidin-3(4H)-yl)benzoyl)(methyl)carbamoyl)oxy)methyl D-valinate hydrochloride], the EC50 with HBV (Hepatitis B virus, 72 h) is no more than 0.05 µM. This compound showed a CC50 at 3 days in data set [1] of 48.8 µM.
Taken in the same sequence, the figures for `C=C[C@H](C)Nc1nc2c(c(=O)n1-c1ccc(C(=O)N(C)CO)cc1)C[C@@H](C)N(C(=O)c1ccc(Br)c(C(F)(F)F)c1)C2` [Compound 8, 4-((R)-7-(4-bromo-3-(trifluoromethyl)benzoyl)-2-(((S)-but-3-en-2-yl)amino)-6-methyl-4-oxo-5,6,7,8-tetrahydropyrido[3,4-d]pyrimidin-3(4H)-yl)-N-(hydroxymethyl)-N-methylbenzamide] were no more than 0.05 µM and greater than 50 µM.
On the same counts, the results for `C=C[C@H](C)Nc1nc2c(c(=O)n1-c1ccc(C(=O)N(C)C(=O)OCOC(=O)C[C@H](O)C(=O)O)cc1)C[C@@H](C)N(C(=O)c1ccc(Br)c(C(F)(F)F)c1)C2` [Compound 9, (S)-4-((((4-((R)-7-(4-bromo-3-(trifluoromethyl)benzoyl)-2-(((S)-but-3-en-2-yl)amino)-6-methyl-4-oxo-5,6,7,8-tetrahydropyrido[3,4-d]pyrimidin-3(4H)-yl)benzoyl)(methyl)carbamoyl)oxy)methoxy)-2-hydroxy-4-oxobutanoic acid] are no more than 0.05 µM and greater than 50 µM.
